Data reported in patent US11358952B2, “Substituted 4-aminoisoindoline-1,3-dione compounds, compositions thereof, and methods of treatment therewith” (Celgene Corporation, priority 2018, dated 2022).
pIC50: −log10 of the molar value.

System: SU-DHL-4 cell line
Assay: SU-DHL-4 cell proliferation assay (Cell Titer-Glo viability)
Format: cell-based
Conditions: Homo sapiens; cell viability IC50 activity level, DLBCL cell line SU-DHL-4, 120 hours post-treatment; read-out: SU-DHL-4 Act
In short: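 Viability read by ATP luminescence (Cell Titer-Glo) at the start and after 120 h of growth at 37°C in 5% CO2. DLBCL cells were seeded at 500 per well with compound across 0.5 nM–10 μM in 20 points, 0.1% DMSO. A four-parameter sigmoidal fit gave IC50 as 50% of DMSO control.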

pIC50	SMILES
6.30 to 6.70	CCC1CN(Cc2ccc(CNc3cccc4c3C(=O)N(C3CCC(=O)NC3=O)C4=O)cc2)C1 (centres unmarked) [Cpd 112, 2-(2,6-dioxopiperidin-3-yl)-4-(4-((3-ethylazetidin-1-yl)methyl)benzylamino)isoindoline-1,3-dione]
6.30 to 6.70	CC(C)C1CN(Cc2ccc(CNc3cccc4c3C(=O)N(C3CCC(=O)NC3=O)C4=O)cc2)C1 (centres unmarked) [Cpd 113, 2-(2,6-dioxopiperidin-3-yl)-4-(4-((3-isopropylazetidin-1-yl)methyl)benzylamino)isoindoline-1,3-dione]
> 6.70	CC(C)(C)C1CN(Cc2ccc(CNc3cccc4c3C(=O)N(C3CCC(=O)NC3=O)C4=O)cc2)C1 (centres unmarked) [Cpd 114, 4-(4-((3-tert-butylazetidin-1-yl)methyl)benzylamino)-2-(2,6-dioxopiperidin-3-yl)isoindoline-1,3-dione]
> 6.70	O=C1CCC(N2C(=O)c3cccc(NCc4ccc(CN5CC6(CCC6)C5)cc4)c3C2=O)C(=O)N1 (centres unmarked) [Cpd 115, 4-(4-(2-azaspiro[3.3]heptan-2-ylmethyl)benzylamino)-2-(2,6-dioxopiperidin-3-yl)isoindoline-1,3-dione]
6.00 to 6.12	O=C1CCC(N2C(=O)c3cccc(NCc4ccc(CN5CC6(C5)CC(F)(F)C6)cc4)c3C2=O)C(=O)N1 (centres unmarked) [Cpd 116, 4-(4-((6,6-difluoro-2-azaspiro[3.3]heptan-2-yl)methyl)benzylamino)-2-(2,6-dioxopiperidin-3-yl)isoindoline-1,3-dione]
6.30 to 6.70	O=C1CCC(N2C(=O)c3cccc(NCc4ccc(CN5CC(C(F)(F)F)C5)cc4)c3C2=O)C(=O)N1 (centres unmarked) [Cpd 117, 2-(2,6-dioxopiperidin-3-yl)-4-(4-((3-(trifluoromethyl)azetidin-1-yl)methyl)benzylamino)isoindoline-1,3-dione]
> 6.70	O=C1CCC(N2C(=O)c3cccc(NCc4ccc(CN5CCN(CC6CC6)CC5)cc4F)c3C2=O)C(=O)N1 (centres unmarked) [Cpd 118, 4-(4-((4-(cyclopropylmethyl)piperazin-1-yl)methyl)-2-fluorobenzylamino)-2-(2,6-dioxopiperidin-3-yl)isoindoline-1,3-dione]
6.30 to 6.70	O=C1CCC(N2C(=O)c3cccc(NCc4ccc(CN5CCN(c6ccc(C(F)(F)F)cn6)CC5)cc4)c3C2=O)C(=O)N1 (centres unmarked) [Cpd 119, 2-(2,6-dioxopiperidin-3-yl)-4-(4-((4-(5-(trifluoromethyl)pyridin-2-yl)piperazin-1-yl)methyl)benzylamino)isoindoline-1,3-dione]
> 6.70	N#Cc1cccc(C2CN(Cc3ccc(CNc4cccc5c4C(=O)N(C4CCC(=O)NC4=O)C5=O)cc3F)C2)c1 (centres unmarked) [Cpd 120, 3-(1-(4-((2-(2,6-dioxopiperidin-3-yl)-1,3-dioxoisoindolin-4-ylamino)methyl)-2-fluorobenzyl)azetidin-3-yl)benzonitrile]
> 6.70	N#Cc1cccc(C2CN(Cc3ccc(CNc4cccc5c4C(=O)N(C4CCC(=O)NC4=O)C5=O)c(F)c3)C2)c1 (centres unmarked) [Cpd 121, 3-(1-(4-((2-(2,6-dioxopiperidin-3-yl)-1,3-dioxoisoindolin-4-ylamino)methyl)-3-fluorobenzyl)azetidin-3-yl)benzonitrile]
6.30 to 6.70	CN1CCC2(CCN(Cc3ccc(CNc4cccc5c4C(=O)N(C4CCC(=O)NC4=O)C5=O)cc3)CC2)C1=O (centres unmarked) [Cpd 122, 2-(2,6-dioxopiperidin-3-yl)-4-(4-((2-methyl-1-oxo-2,8-diazaspiro[4.5]decan-8-yl)methyl)benzylamino)isoindoline-1,3-dione]
6.30 to 6.70	O=C1CCC(N2C(=O)c3cccc(NCc4ccc(CN5CCC(OC(F)(F)F)CC5)cc4)c3C2=O)C(=O)N1 (centres unmarked) [Cpd 123, 2-(2,6-dioxopiperidin-3-yl)-4-(4-((4-(trifluoromethoxy)piperidin-1-yl)methyl)benzylamino)isoindoline-1,3-dione]
6.12 to 6.30	CCCOC1CCN(Cc2ccc(CNc3cccc4c3C(=O)N(C3CCC(=O)NC3=O)C4=O)cc2)CC1 (centres unmarked) [Cpd 124, 2-(2,6-dioxopiperidin-3-yl)-4-(4-((4-propoxypiperidin-1-yl)methyl)benzylamino)isoindoline-1,3-dione]
6.30 to 6.70	O=C1CCC(N2C(=O)c3cccc(NCc4ccc(CN5CCC(OC6CCC6)CC5)cc4)c3C2=O)C(=O)N1 (centres unmarked) [Cpd 126]
6.00 to 6.12	O=C1CCC(N2C(=O)c3cccc(NCc4ccc(CN5CCC(OCC6CC6)CC5)cc4)c3C2=O)C(=O)N1 (centres unmarked) [Cpd 127, 4-(4-((4-(cyclopropylmethoxy)piperidin-1-yl)methyl)benzylamino)-2-(2,6-dioxopiperidin-3-yl)isoindoline-1,3-dione]
6.30 to 6.70	CCC1(OC)CCN(Cc2ccc(CNc3cccc4c3C(=O)N(C3CCC(=O)NC3=O)C4=O)cc2)CC1 (centres unmarked) [Cpd 128, 2-(2,6-dioxopiperidin-3-yl)-4-(4-((4-ethyl-4-methoxypiperidin-1-yl)methyl)benzylamino)isoindoline-1,3-dione]
> 6.70	CC1(C)CCC2(CCN(Cc3ccc(CNc4cccc5c4C(=O)N(C4CCC(=O)NC4=O)C5=O)cc3)CC2)O1 (centres unmarked) [Cpd 129, 4-(4-((2,2-dimethyl-1-oxa-8-azaspiro[4.5]decan-8-yl)methyl)benzylamino)-2-(2,6-dioxopiperidin-3-yl)isoindoline-1,3-dione]
6.00 to 6.12	O=C1CCC(N2C(=O)c3cccc(NCc4ccc(CN5CCC(O)(C(F)(F)F)CC5)cc4)c3C2=O)C(=O)N1 (centres unmarked) [Cpd 130, 2-(2,6-dioxopiperidin-3-yl)-4-(4-((4-hydroxy-4-(trifluoromethyl)piperidin-1-yl)methyl)benzylamino)isoindoline-1,3-dione]
6.30 to 6.70	O=C1CCC(N2C(=O)c3cccc(NCc4ccc(CN5CCC(O)(C6CC6)CC5)cc4)c3C2=O)C(=O)N1 (centres unmarked) [Cpd 131, 4-(4-((4-cyclopropyl-4-hydroxypiperidin-1-yl)methyl)benzylamino)-2-(2,6-dioxopiperidin-3-yl)isoindoline-1,3-dione]
6.00 to 6.12	O=C1CCC(N2C(=O)c3cccc(NCc4ccc(CN5CCC(Oc6ccccn6)CC5)cc4)c3C2=O)C(=O)N1 (centres unmarked) [Cpd 132, 2-(2,6-dioxopiperidin-3-yl)-4-(4-((4-(pyridin-2-yloxy)piperidin-1-yl)methyl)benzylamino)isoindoline-1,3-dione]
6.30 to 6.70	CCS(=O)(=O)N1CCN(Cc2ccc(CNc3cccc4c3C(=O)N(C3CCC(=O)NC3=O)C4=O)cc2)CC1 (centres unmarked) [Cpd 133, 2-(2,6-dioxopiperidin-3-yl)-4-(4-((4-(ethylsulfonyl)piperazin-1-yl)methyl)benzylamino)isoindoline-1,3-dione]
> 6.70	CC(C)(C)C1CN(Cc2ccc(CNc3cccc4c3C(=O)N(C3CCC(=O)NC3=O)C4=O)c(F)c2)C1 (centres unmarked) [Cpd 134, 4-(4-((3-tert-butylazetidin-1-yl)methyl)-2-fluorobenzylamino)-2-(2,6-dioxopiperidin-3-yl)isoindoline-1,3-dione]
6.30 to 6.70	O=C1CCC(N2C(=O)c3cccc(NCc4ccc(CN5CC6(CC6)C5)cc4F)c3C2=O)C(=O)N1 (centres unmarked) [Cpd 135, 4-(4-(5-azaspiro[2.3]hexan-5-ylmethyl)-2-fluorobenzylamino)-2-(2,6-dioxopiperidin-3-yl)isoindoline-1,3-dione]
6.00 to 6.12	COc1cc(N2CCN(Cc3ccc(CNc4cccc5c4C(=O)N(C4CCC(=O)NC4=O)C5=O)cc3)CC2)ncn1 (centres unmarked) [Cpd 136, 2-(2,6-dioxopiperidin-3-yl)-4-(4-((4-(6-methoxypyrimidin-4-yl)piperazin-1-yl)methyl)benzylamino)isoindoline-1,3-dione]
> 6.70	O=C1CCC(N2C(=O)c3cccc(NCc4ccc(CN5CC6(CCC6)C5)cc4F)c3C2=O)C(=O)N1 (centres unmarked) [Cpd 137, 4-(4-(2-azaspiro[3.3]heptan-2-ylmethyl)-2-fluorobenzylamino)-2-(2,6-dioxopiperidin-3-yl)isoindoline-1,3-dione]
6.12 to 6.30	N#Cc1cccc(N2CCN(Cc3ccc(CNc4cccc5c4C(=O)N(C4CCC(=O)NC4=O)C5=O)cc3)CC2)n1 (centres unmarked) [Cpd 138, 6-(4-(4-((2-(2,6-dioxopiperidin-3-yl)-1,3-dioxoisoindolin-4-ylamino)methyl)benzyl)piperazin-1-yl)picolinonitrile]
> 6.70	NC(=O)c1ccc(N2CCN(Cc3ccc(CNc4cccc5c4C(=O)N(C4CCC(=O)NC4=O)C5=O)c(F)c3)CC2)cc1 (centres unmarked) [Cpd 139, 4-(4-(4-((2-(2,6-dioxopiperidin-3-yl)-1,3-dioxoisoindolin-4-ylamino)methyl)-3-fluorobenzyl)piperazin-1-yl)benzamide]
6.30 to 6.70	CN(C)C(=O)c1ccc(N2CCN(Cc3ccc(CNc4cccc5c4C(=O)N(C4CCC(=O)NC4=O)C5=O)c(F)c3)CC2)cn1 (centres unmarked) [Cpd 140, 5-(4-(4-((2-(2,6-dioxopiperidin-3-yl)-1,3-dioxoisoindolin-4-ylamino)methyl)-3-fluorobenzyl)piperazin-1-yl)-N,N-dimethylpicolinamide]
> 6.70	NC(=O)c1ccc(N2CCN(Cc3ccc(CNc4cccc5c4C(=O)N(C4CCC(=O)NC4=O)C5=O)cc3F)CC2)cc1 (centres unmarked) [Cpd 141, 4-(4-(4-((2-(2,6-dioxopiperidin-3-yl)-1,3-dioxoisoindolin-4-ylamino)methyl)-2-fluorobenzyl)piperazin-1-yl)benzamide]
6.12 to 6.30	CN(C)C(=O)c1ccc(N2CCN(Cc3ccc(CNc4cccc5c4C(=O)N(C4CCC(=O)NC4=O)C5=O)cc3F)CC2)cn1 (centres unmarked) [Cpd 142, 5-(4-(4-((2-(2,6-dioxopiperidin-3-yl)-1,3-dioxoisoindolin-4-ylamino)methyl)-2-fluorobenzyl)piperazin-1-yl)-N,N-dimethylpicolinamide]

SMILES	pIC50
O=C1CCC(N2C(=O)c3cccc(NCc4ccc(CN5CCC(O)(c6ccccn6)CC5)cc4)c3C2=O)C(=O)N1 (centres unmarked) [Cpd 111, 2-(2,6-dioxopiperidin-3-yl)-4-(4-((4-hydroxy-4-(pyridin-2-yl)piperidin-1-yl)methyl)benzylamino)isoindoline-1,3-dione]	> 6.70
CC(C)COC1CCN(Cc2ccc(CNc3cccc4c3C(=O)N(C3CCC(=O)NC3=O)C4=O)cc2)CC1 (centres unmarked) [Cpd 125, 2-(2,6-dioxopiperidin-3-yl)-4-(4-((4-isobutoxypiperidin-1-yl)methyl)benzylamino)isoindoilne-1,3-dione]	6.30 to 6.70
